# Data as given in patent publication EP1274675B1, “COMPOUNDS, COMPOSITIONS AND METHODS FOR PREVENTING NEURODEGENERATION IN ACUTE AND CHRONIC INJURIES IN THE CENTRAL NERVOUS SYSTEM” (Neurotech Co., Ltd., priority 2000, dated 2001).
# How the values were obtained:
# [1] = system: Mouse cortical cell cultures; assay: Fe^2+-induced free radical neurotoxicity in cortical cell cultures (LDH release); type: cell-based; details: for protection against free radical neurotoxicity relative to NBAS / prevention of free radical neurotoxicity relative to BAS: comparison in words; for effect on Fe^2+-induced free radical neurotoxicity: 10 µM compound; for effect on Fe^2+-induced free radical neurotoxicity / effect on Fe^2+-induced neuronal death: continuous 50 µM Fe^2+; for effect on Fe^2+-induced neuronal death: 1 µM compound
# Experimental: (§1) Primary cortical cell cultures from embryonic mice were prepared and used to examine neuroprotective action of compounds. Mouse cortical cell culture system has been extensively used to study mechanisms and pharmacological intervention of neuronal death in neurological diseases. In brief, mouse cerebral cortices were removed from brains of the 15 day-old-fetal mice, in accordance with a protocol approved by our institutional animal care committee. […] After 7 days in vitro (DIV 7), cultures were shifted into a growth medium identical to the plating medium but lacking fetal serum. At DIV 7 - 9, […] cytosine arabinofuranoside was included to halt overgrowth of glia. Mixed cultures of neurons and glia were then fed twice a week.
# [2] = DPPH anti-oxidant assay (decrease in DPPH absorption at 517 nm); type: biochemical; details: mean ± SEM, n = 3, DPPH alone 1.2
# Experimental: To examine anti-oxidant effect, DPPH (2,2-diphenyl-1-picryl-hydrazyl radical), a stable free radical, was dissolved in ethanol to make a 100 µM solution. A compound was reacted with DPPH or ethanol. After incubation for 30 min, relative decrease in DPPH absorption at 517 nm was measured by a spectrophotometer.
# [3] = system: Mouse cortical cell cultures; assay: NMDA neurotoxicity in cortical cell cultures (LDH release); type: cell-based; details: for neuroprotective effect against NMDA neurotoxicity relative to BAS: comparison in words
# Experimental: as §1
# [4] = system: Mouse cortical cell cultures; assay: Zn^2+ neurotoxicity in cortical cell cultures (LDH release); type: cell-based; details: for neuroprotective effect against Zn^2+ neurotoxicity relative to BAS: comparison in words
# Experimental: as §1
# [5] = 100 µM compound reacted with 100 uM DPPH in ethanol for 30 min
# [6] = 300 µM compound, 300 µM NMDA for 10 min, in words
# [7] = 10 µM compound reacted with 100 uM DPPH in ethanol for 30 min
# [8] = 30 µM compound reacted with 100 uM DPPH in ethanol for 30 min
# [9] = 300 µM compound reacted with 100 uM DPPH in ethanol for 30 min
structure (smiles),measurement,setting,value
"O=C(O)c1cc(NS(=O)(=O)c2ccc([N+](=O)[O-])cc2)ccc1O [NBSAA, 5-(4-nitrobenzenesulfonyl)aminosalicylic acid]",protection against free radical neurotoxicity relative to NBAS,[1],weaker than NBAS
same,A517nm,[2]; [5],0.15 ± 0.05
same,effect on NMDA neurotoxicity,[3]; [6],markedly reduced
same,effect on NMDA neurotoxicity,"[3]; 30 - 300 µM compound, 300 µM NMDA for 10 min, in words",attenuated NMDA neurotoxicity in a dose-dependent manner
"O=C(O)c1cc(NCc2ccc(C(F)(F)F)cc2)ccc1O [TBAS, 5-(4-trifluoromethylbenzyl)aminosalicylic acid]",neuroprotective effect against Zn^2+ neurotoxicity relative to BAS,[4],did not reduce neuroprotective effects of BAS
same,prevention of free radical neurotoxicity relative to BAS,[1],more potent than BAS
same,neuroprotective effect against NMDA neurotoxicity relative to BAS,[3],did not reduce neuroprotective effects of BAS
"O=C(O)c1cc(NCc2c(F)c(F)c(F)c(F)c2F)ccc1O [PBAS, 5-(pentafluorobenzyl)aminosalicylic acid]",inhibition at 300 µM,"[3]; Mus musculus, 300 µM compound, 300 µM NMDA for 10 min, LDH 24 hr later, read-out: reduction of NMDA-induced neuronal death",~65%
"O=C(Nc1ccc(O)c(C(=O)O)c1)c1ccc([N+](=O)[O-])cc1 [NBAA, 5-(4-nitrobenzoyl)aminosalicylic acid]",protection against free radical neurotoxicity relative to NBAS,[1],weaker than NBAS
same,A517nm,[2]; [5],0.42 ± 0.22
same,effect on NMDA neurotoxicity,"[3]; 30 µM compound, 300 µM NMDA for 10 min, in words",significantly attenuated
same,change of protective effect against NMDA with higher doses,"[3]; above 30 µM up to 300 µM, in words",not further increased
"CCOC(=O)c1cc(NCc2ccc([N+](=O)[O-])cc2)ccc1O [NAHE, 5-(4-nitrobenzyl)amino-2-hydroxy ethylbenzoate]",effect on Fe^2+-induced free radical neurotoxicity,[1]; in words,blocked
same,effect on NMDA neurotoxicity,[3]; [6],attenuated
"Nc1ccc(O)c(C(=O)O)c1 [AS, 5-amino salicylic acid]",effect on neuronal death after exposure to Zn^2+,"[4]; 10 - 300 µM compound during and post Zn^2+ treatment, 300 µM Zn^2+ for 30 min, in words",not reduced
same,effect on free radical neurotoxicity following exposure to Fe^2+,"[1]; 10 - 100 µM compound, 24 hr-exposure to 50 µM Fe^2+, in words",dose-dependently prevented
same,effect on NMDA-induced neuronal death,"[3]; 10 - 300 µM compound, 300 µM NMDA for 10 min, in words",did not attenuate
"O=C(O)c1cc(NCc2ccc([N+](=O)[O-])cc2)ccc1O [NBAS, 5-(4-nitrobenzyl)aminosalicylic acid]",neuroprotective effect against Zn^2+ neurotoxicity relative to BAS,[4],did not reduce neuroprotective effects of BAS
same,prevention of free radical neurotoxicity relative to BAS,[1],more potent than BAS
same,A517nm,[2]; [7],0.37±0.1
same,A517nm,[2]; [8],0.04 ± 0.01
same,A517nm,[2]; [5],0.04±0.00
same,A517nm,[2]; [9],0.04±0.00
same,neuroprotective effect against NMDA neurotoxicity relative to BAS,[3],did not reduce neuroprotective effects of BAS
"Cc1c(C)c2c(c(C)c1O)CCC(C)(C(=O)O)O2 (centres unmarked) [Trolox, trolox]",A517nm,[2]; 3 µM compound reacted with 100 uM DPPH in ethanol for 30 min,1.08±0.1
same,A517nm,[2]; [7],0.89±0.08
same,A517nm,[2]; [8],0.39±0.06
same,A517nm,[2]; [5],0.05±0.01
same,A517nm,[2]; [9],0.03±0.01
"CCOC(=O)c1cc(N(Cc2ccc([N+](=O)[O-])cc2)C(C)=O)ccc1O [NNAHE, 5-(4-nitrobenzyl)-N-acetylamino-2-hydroxy ethylbenzoate]",effect on Fe^2+-induced free radical neurotoxicity,[1]; in words,blocked
same,effect on NMDA neurotoxicity,[3]; [6],attenuated
"O=C(O)c1cc(NCCc2ccc([N+](=O)[O-])cc2)ccc1O [NPAA, 5-[2-(4-nitrophenyl)-ethyl]aminosalicylic acid]",effect on Fe^2+-induced neuronal death,[1]; in words,complete blockade
same,protection against free radical neurotoxicity relative to NBAS,[1],more effective than NBAS
same,A517nm,[2]; [5],0.09 ± 0.01
same,effect on NMDA neurotoxicity,[3]; [6],slightly reduced
"O=C(O)c1cc(NCCCc2ccc([N+](=O)[O-])cc2)ccc1O [NPPAA, 5-[3-(4-nitrophenyl)-n-propyl]aminosalicylic acid]",effect on Fe^2+-induced neuronal death,[1]; in words,complete blockade
same,protection against free radical neurotoxicity relative to NBAS,[1],more effective than NBAS
same,A517nm,[2]; [5],0.09 ± 0.02
same,effect on NMDA neurotoxicity,[3]; [6],slightly reduced
"O=C(O)c1cc(NCc2ccc(Cl)cc2)ccc1O [CBAS, 5-(4-chlorobenzyl)aminosalicylic acid]",neuroprotective effect against Zn^2+ neurotoxicity relative to BAS,[4],did not reduce neuroprotective effects of BAS
same,prevention of free radical neurotoxicity relative to BAS,[1],more potent than BAS
same,neuroprotective effect against NMDA neurotoxicity relative to BAS,[3],did not reduce neuroprotective effects of BAS
"CCOC(=O)c1cc(N(Cc2ccc([N+](=O)[O-])cc2)C(C)=O)ccc1OC(C)=O [NNAAE, 5-(4-nitrobenzyl)-N-acetylamino-2-acetoxy ethylbenzoate]",effect on Fe^2+-induced free radical neurotoxicity,[1]; in words,blocked
same,effect on NMDA neurotoxicity,[3]; [6],attenuated
